Source: ChEMBL document CHEMBL1138147, “Respiratory syncytial virus fusion inhibitors. Part 3: Water-soluble benzimidazol-2-one derivatives with antiviral activity in vivo” (Bioorg Med Chem Lett, 2006)

What was measured:
[1] = system: Respiratory syncytial virus; experiment: Antiviral activity against RSV Long strain in human Hep2 cells; type: functional, organism-based; settings: HEp-2
HEp-2 = experiment: Cytotoxicity against human Hep2 cells infected with RSV Long strain; type: functional
[2] = Therapeutic index (CC50/EC50) for RSV infected Hep2 cells; type: cell-based, HEp-2; settings: human, read-out: Ratio CC50/EC50
Cotton rat [3] = experiment: Efficacy in cotton rat measured as reduction in log TCID50 of RSV per gram of lung at 1.33 mg/mL; type: functional, organism-based; settings: Sigmodon
Cotton rat [4] = experiment: Efficacy in cotton rat measured as reduction in log TCID50 of RSV per gram of lung at 0.67 mg/mL; type: functional, Sigmodon
Cotton rat [5] = experiment: Efficacy in cotton rat measured as reduction in log TCID50 of RSV per gram of lung at 0.2 mg/mL; type: functional, Sigmodon
Cotton rat [6] = experiment: Efficacy in cotton rat measured as reduction in log TCID50 of RSV per gram of lung at 1.0 mg/mL; type: functional, Sigmodon
Cotton rat [7] = experiment: Efficacy in cotton rat measured as reduction in log TCID50 of RSV per gram of lung at 1.6 mg/mL; type: functional, Sigmodon
Cotton rat [8] = experiment: Efficacy in cotton rat measured as reduction in log TCID50 of RSV per gram of lung at 0.5 mg/mL; type: functional, Sigmodon
Cotton rat [9] = experiment: Efficacy in cotton rat measured as reduction in log TCID50 of RSV per gram of lung at 90 mg/kg, ip; type: functional, Sigmodon; settings: route intraperitoneal
Mus musculus [10] = experiment: Efficacy in BALB/c mouse measured as reduction in log TCID50 of RSV per gram of lung at 90 mg/kg, sc; type: functional; settings: route subcutaneous
Mus musculus [11] = experiment: Efficacy in BALB/c mouse measured as reduction in log TCID50 of RSV per gram of lung at 120 mg/kg, sc; type: functional; settings: route subcutaneous
Cotton rat [12] = experiment: Efficacy in cotton rat measured as reduction in log TCID50 of RSV per gram of lung at 2.0 mg/mL; type: functional, Sigmodon
Cotton rat [13] = experiment: Efficacy in cotton measured as reduction in log TCID50 of RSV per gram of lung rat at 0.05 mg/mL; type: functional, Sigmodon
Cotton rat [14] = experiment: Efficacy in cotton rat measured as reduction in log TCID50 of RSV per gram of lung at 0.01 mg/mL; type: functional, Sigmodon

SMILES | EC50 [1] [nM] | CC50 (HEp-2) [nM] | selectivity ratio [2] | further results
CC(C)n1c(=O)n(Cc2nc3ccccc3n2CCc2nnn[nH]2)c2ccccc21 | 15 | 177000 | 11800 | 
CC(C)CCn1c(Cn2c(=O)n(CCCS(=O)(=O)O)c3ccccc32)nc2ccccc21 | 38 | 114000 | 3010 | 
C=C(C)n1c(=O)n(Cc2nc3ccccc3n2CCc2nnn[nH]2)c2ccccc21 | 8 | > 249000 |  | Activity (Cotton rat [3]): Toxic
CC(C)CCn1c(Cn2c(=O)n(CCCCCC(=O)O)c3ccccc32)nc2ccccc21 | 15 | 16500 | 1100 | 
O=C(O)c1ccc(Cn2c(=O)n(Cc3nc4ccccc4[nH]3)c3ccccc32)cc1 | 14 | 75500 | 5400 | Efficacy (Cotton rat [4]): 3.6
Oc1nc2ccccc2n1Cc1nc2ccccc2[nH]1 | 1010 | 228000 | 226 | 
O=c1n(Cc2nc3ccccc3[nH]2)c2ccccc2n1Cc1ccccc1S(=O)(=O)O | 13 | 130000 | 9970 | 
Cn1c(=O)n(Cc2nc3ccccc3[nH]2)c2ccccc21 | 593 | > 202000 | > 340 | 
CC(C)CCn1c(Cn2c(=O)n(CCCCC(=O)O)c3ccccc32)nc2ccccc21 | 8 | 16500 | 2060 | 
CC(C)CCn1c(Cn2c(=O)n(Cc3ccc(C(=O)O)cc3)c3ccccc32)nc2ccccc21 | 11 | 27300 | 2480 | 
CC(C)CCn1c(Cn2c(=O)n(Cc3nn[nH]n3)c3ccccc32)nc2ccccc21 | 500 | > 210000 | > 420 | 
CC(C)CCn1c(Cn2c(=O)n(CCCCS(=O)(=O)O)c3ccccc32)nc2ccccc21 | 52 | 2900 | 56 | 
O=C(O)c1cccc(Cn2c(=O)n(Cc3nc4ccccc4[nH]3)c3ccccc32)c1 | 7 | > 194000 | 6430 | 
O=C(O)Cn1c(=O)n(Cc2nc3ccccc3n2CCCO)c2ccccc21 | 1930 | 229000 | 119 | 
CC(C)CCn1c(Cn2c(=O)n(Cc3ccccc3C(=O)N[C@@H](CC(=O)O)C(=O)O)c3ccccc32)nc2ccccc21 | 6 | 154000 | ≥ 25700 | 
CC(C)CCn1c(Cn2c(=O)n(CCN(C)C)c3ccccc32)nc2ccccc21 | 400 | 10000 | 25 | 
CC(C)CCn1c(Cn2c(=O)n(Cc3ccc(Cn4c(=O)ccn(CC(=O)N[C@@H](CC(=O)O)C(=O)O)c4=O)cc3)c3ccccc32)nc2ccccc21 | 8 | > 106000 | > 13200 | Efficacy (Cotton rat [5]): 3.22; Efficacy (Cotton rat [6]): 1.83
Oc1nc2ccccc2n1Cc1nc2ccccc2n1CCn1cnnn1 | 1200 | 92000 | 77 | 
CC(C)CCn1c(Cn2c(=O)n(Cc3ccc(Cn4c(=O)ccn(CC(=O)O)c4=O)cc3)c3ccccc32)nc2ccccc21 | 3 | > 159000 | > 53000 | 
O=C(O)c1ccc(Cn2c(=O)n(Cc3nc4ccccc4n3CCCO)c3ccccc32)cc1 | 49 | 210000 | 4280 | 
C=C(C)n1c(=O)n(Cc2nc3ccccc3n2Cc2nn[nH]n2)c2ccccc21 | 8440 | 181000 | 21 | 
CC(C)CCn1c(Cn2c(=O)n(CCCc3nnn[nH]3)c3ccccc32)nc2ccccc21 | 235 | 37100 | 158 | 
O=c1n(Cc2ccc(P(=O)(O)O)cc2)c2ccccc2n1Cc1nc2ccccc2[nH]1 | 368 | > 174000 | > 473 | 
CC(C)CCn1c(Cn2c(=O)n(CC(=O)O)c3ccccc32)nc2ccccc21 | 163 | 194000 |  | 
CC(C)CCn1c(Cn2c(=O)n(CC(=O)NS(=O)(=O)c3ccccc3)c3ccccc32)nc2ccccc21 | 1210 | 14100 | 12 | 
CC(C)CCn1c(Cn2c(=O)n(CCCCc3nnn[nH]3)c3ccccc32)nc2ccccc21 | 15 | 14900 | 993 | 

SMILES | EC50 [1] [nM] | CC50 (HEp-2) [nM] | selectivity ratio [2] | further results
O=c1n(Cc2ccc(O)cc2)c2ccccc2n1Cc1nc2ccccc2[nH]1 | 63 | 58700 | 932 | 
O=C(O)CN(CC(=O)O)C(=O)c1ccc(Cn2c(=O)n(Cc3nc4ccccc4n3CCCCO)c3ccccc32)cc1 | 57 | 112000 | 1960 | 
O=C(O)c1ccc(Cn2c(=O)n(Cc3nc4ccccc4n3CCCCO)c3ccccc32)cc1 | 4 | > 196000 | > 49000 | 
O=C(O)Cn1c(=O)n(Cc2nc3ccccc3[nH]2)c2ccccc21 | 155 | 20600 | 133 | 
CC(C)CCn1c(Cn2c(=O)n(Cc3cccc(C(=O)O)c3)c3ccccc32)nc2ccccc21 | 10 | 10700 | 1070 | 
CN(C)CCCn1c(Cn2c(O)nc3ccccc32)nc2ccccc21 | 1660 | 89100 | 53 | 
CC(C)CCn1c(Cn2c(=O)n(Cc3ccccc3S(=O)(=O)O)c3ccccc32)nc2ccccc21 | 7 | > 19000 | > 2710 | Efficacy (Cotton rat [7]): 2.25
CC(C)CCn1c(Cn2c(=O)n(Cc3ccc(C(=O)N[C@@H](CP(=O)(O)O)C(=O)O)cc3)c3ccccc32)nc2ccccc21 | 34 | > 114000 | > 3350 | Efficacy (Cotton rat [8]): 2.43
CCOP(=O)(O)c1ccc(Cn2c(=O)n(Cc3nc4ccccc4n3CCC(C)C)c3ccccc32)cc1 | 48 | > 180000 | > 3350 | 
CC(C)CCn1c(Cn2c(=O)n(Cc3cc(C(=O)O)cc(C(=O)O)c3)c3ccccc32)nc2ccccc21 | 656 | > 168000 | > 256 | 
C=C(C)n1c(=O)n(Cc2nc3ccccc3n2CCc2nn[nH]n2)c2ccccc21 |  |  | 14600 | 
C=C(C)n1c(=O)n(Cc2nc3ccccc3n2CCCc2nnn[nH]2)c2ccccc21 | 14 | > 330 | > 23 | 
NC(=O)c1ncn([C@@H]2O[C@H](CO)[C@@H](O)[C@H]2O)n1 [RIBAVIRIN] |  |  |  | Efficacy (Cotton rat [9]): 2.5; Efficacy (Mus musculus [10]): 1.86
CC(C)n1c(=O)n(Cc2nc3ccccc3n2CCc2noc(O)n2)c2ccccc21 | 21 | 75400 | 3540 | Efficacy (Cotton rat [8]): 2.1; Efficacy (Mus musculus [11]): 2.55
CC(C)CCn1c(Cn2c(=O)n(Cc3ccc(P(=O)(O)O)cc3)c3ccccc32)nc2ccccc21 | 27 | > 175000 | 3000 | Efficacy (Cotton rat [12]): 2.1; Efficacy (Cotton rat [5]): 3.5; Efficacy (Cotton rat [13]): 4; Efficacy (Cotton rat [14]): 4.4
CC(C)CCn1c(Cn2c(=O)n(CCC(=O)O)c3ccccc32)nc2ccccc21 | 15 | 102000 | 6810 | 
C=C(C)n1c(=O)n(Cc2nc3ccccc3n2CCCN(C)C)c2ccccc21 | 75 | 19900 | 265 | 
CC(C)CCn1c(Cn2c(=O)n(CCCCCc3nnn[nH]3)c3ccccc32)nc2ccccc21 | 13 | 90000 | 6920 | Activity (Cotton rat [12]; Sigmodon): Toxic
CC(C)CCn1c(Cn2c(=O)n(CCCN(C)C)c3ccccc32)nc2ccccc21 | 292 | 5300 | 18 | 
CC(C)CCn1c(Cn2c(=O)n(CC(=O)NS(C)(=O)=O)c3ccccc32)nc2ccccc21 | 613 | 152000 | 247 | 
COc1ccc(Cn2c(=O)n(Cc3nc4ccccc4[nH]3)c3ccccc32)cc1 | 333 | 41100 | 123 | 
O=c1n(Cc2ccccc2)c2ccccc2n1Cc1nc2ccccc2[nH]1 | 114 | 129000 | 1130 | 
CC(C)CCn1c(Cn2c(=O)n(CCCC(=O)O)c3ccccc32)nc2ccccc21 | 75 | 138000 | 1840 | 
CC(C)CCn1c(Cn2c(=O)n(Cc3ccc(C(=O)N[C@@H](CC(=O)O)C(=O)O)cc3)c3ccccc32)nc2ccccc21 | 5 | > 144000 | > 28800 | Efficacy (Cotton rat [12]): 2.6
CC(C)CCn1c(Cn2c(=O)n(Cc3ccccc3C(=O)O)c3ccccc32)nc2ccccc21 | 11 | 15700 | 1430 | 
CC(C)CCn1c(Cn2c(=O)n(Cc3ccc(CP(=O)(O)O)cc3)c3ccccc32)nc2ccccc21 | 51 | 2800 | 55 | 
